Assay [1] addresses T1, SCD1 (Homo sapiens, UniProt O00767).
T1 construct: host or cells: S. cerevisiae ole1Δ strain (W303 pdr1Δ pdr3Δ background), plasmid pRS316 with TDH3 promoter and CYC1 terminator
T1 sequence (O00767 1-359): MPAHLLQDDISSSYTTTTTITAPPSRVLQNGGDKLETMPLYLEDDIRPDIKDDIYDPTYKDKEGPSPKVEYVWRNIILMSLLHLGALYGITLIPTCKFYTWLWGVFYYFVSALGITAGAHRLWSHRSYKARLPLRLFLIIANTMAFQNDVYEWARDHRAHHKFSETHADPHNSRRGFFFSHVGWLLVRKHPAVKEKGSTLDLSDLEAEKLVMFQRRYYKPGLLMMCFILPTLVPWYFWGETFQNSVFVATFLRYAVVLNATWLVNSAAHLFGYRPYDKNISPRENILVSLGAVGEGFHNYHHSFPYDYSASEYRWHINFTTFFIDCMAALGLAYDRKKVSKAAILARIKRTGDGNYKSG
Briefly: Growth inhibition of humanized yeast strain expressing SCD1 as sole desaturase. The assay is classed as cell-based. The method in brief:
(§1)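 Plasmid-complemented ole1Δ yeast, drug-pump deleted (pdr1Δ pdr3Δ), depend solely on the introduced Ole1, SCD1 or SCD5 desaturase. Compounds are added from DMSO to cells in uracil-free galactose medium, 2× density 0.02, and OD600 is read after 24 h or 40 h respectively.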

The target in assay [2] is T2, SCD5 (Homo sapiens, UniProt Q86SK9).
T2 construct: host or cells: S. cerevisiae ole1Δ strain (W303 pdr1Δ pdr3Δ background), plasmid pRS316 with TDH3 promoter and CYC1 terminator
T2 sequence (Q86SK9 1-330): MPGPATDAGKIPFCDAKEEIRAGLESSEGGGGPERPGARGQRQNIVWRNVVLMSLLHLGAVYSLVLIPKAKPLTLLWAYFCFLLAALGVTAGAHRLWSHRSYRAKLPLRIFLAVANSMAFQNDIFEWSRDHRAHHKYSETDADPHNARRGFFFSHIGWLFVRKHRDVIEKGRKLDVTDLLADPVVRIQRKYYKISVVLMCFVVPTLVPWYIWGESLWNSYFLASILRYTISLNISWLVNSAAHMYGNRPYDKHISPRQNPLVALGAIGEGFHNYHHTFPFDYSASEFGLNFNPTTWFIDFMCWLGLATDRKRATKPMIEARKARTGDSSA
The assay is described as follows: Growth inhibition of humanized yeast strain expressing SCD5 as sole desaturase. The assay is classed as cell-based. The method in brief:
as §1

[3] abbreviates: growth inhibition of humanized yeast strain expressing human SCD1.
[4] abbreviates: growth inhibition of humanized yeast strain expressing human SCD5.
[5] abbreviates: humanized yeast strain expressing SCD1.
Setting [6] is: humanized yeast strain expressing SCD5.

SMILES strings stand for the structures. Bounds are passed on as bounds.

Consider `CC(C)(C)OC(=O)N1CCN(c2noc(-c3ccc4cnn(C5CNC5)c4c3)n2)CC1` [Compound 932], for which the 50% inhibitory concentration (IC50) – broadly, the concentration that inhibits the measured activity by half – in assay [1] (humanized yeast strain, 40 h) is greater than 45 µM; in assay [2] (humanized yeast strain, 40 h), 0.01 µM.
For `CC1(C(=O)N2CCC(c3noc(-c4ccnc(C5CCOC5)c4)n3)CC2)CC1` (stereo not shown) [Compound 1178] the same measures were greater than 45 µM and 0.63 µM.
With `Cc1nn(C)c2cc(-c3noc(N4CCN(C(=O)OC5(C)CC5)CC4)n3)ccc12` [Compound 613], the half-inhibitory concentration (IC50) in assay [1] (setting [3]) and in assay [2] (setting [4]) was greater than 45 µM in each case.
As for `CC(C)(C)OC(=O)N1CC=C(c2cnc(-c3ccc4cnn(C5COC5)c4c3)nc2)CC1` [Compound 984], the IC50 in assay [1] (humanized yeast strain, 40 h) is greater than 45 µM; in assay [2] (humanized yeast strain, 40 h) it was greater than 45 µM.
On to `CC(C)(C)OC(=O)N1CCC(c2nc(-c3ccc4cn(C5CCCOC5)nc4c3)no2)CC1` (stereo not shown) [Compound 719], for which the IC50 in assay [1] (setting [3]) and in assay [2] (setting [4]) was greater than 45 µM throughout.
For the compound `CC(C)n1ncc2ccc(-c3noc(C4(F)CCN(C(=O)CC5(C)CC5)CC4)n3)cc21` [Compound 623], the values for the IC50 in assay [1] (setting [3]) and in assay [2] (setting [4]) were greater than 45 µM and 0.854 µM, respectively.
As for `CC(C)C(=O)N1CCC(c2noc(-c3ccnc(N(C)C4COC4)c3)n2)CC1` [Compound 1155], the half-inhibitory concentration (IC50) is greater than 45 µM in assay [1] (humanized yeast strain, 40 h) and greater than 45 µM in assay [2] (humanized yeast strain, 40 h).
As to `CC(C)n1ncc2ccc(-c3noc([C@H]4CC[C@@H](O)CC4)n3)cc21` [Compound 654], the IC50 in assay [1] (setting [3]) and in assay [2] (setting [4]) was greater than 45 µM each time.
In the case of `Clc1cnc2n1CCN(c1noc(-c3ccc4cnn(C5CCC5)c4c3)n1)C2` [Compound 905], the IC50 in assay [1] (humanized yeast strain, 40 h) is greater than 45 µM; in assay [2] (humanized yeast strain, 40 h), greater than 45 µM.
For `CC(C)n1ncc2ccc(-c3noc(C4CCN(C(=O)CNC(=O)c5ccc(Cl)cc5)CC4(F)F)n3)cc21` (stereo not shown) [Compound 521], the values for the IC50 in assay [1] (setting [5]) and in assay [2] (setting [6]) were greater than 45 µM and 8.79 µM, respectively.
Take `O=C(N1CCC(c2noc(-c3cnc4cnn(C5COC5)c4c3)n2)CC1)C1(F)CC1` [Compound 1140]: the IC50 was greater than 45 µM in assay [1] (humanized yeast strain, 40 h) and 0.0613 µM in assay [2] (humanized yeast strain, 40 h).
For `CC(C)n1ncc2ccc(-c3noc(C4CCN(C(=O)c5ncc(Cl)o5)CC4)n3)cc21` [Compound 758] the same measures were greater than 45 µM and 5.27 µM.
On the same counts, the results for `COC(=O)N1CCC(c2noc(-c3cc(Br)c4cnn(C5COC5)c4c3)n2)CC1` [Compound 1043] are greater than 45 µM and 0.011 µM.
Consider `CNC(=O)Cn1cc2ccc(-c3noc(C4CCN(C(=O)OC(C)(C)C)CC4)n3)cc2n1` [Compound 678], for which the IC50 is greater than 45 µM in assay [1] (setting [3]) and 3.87 µM in assay [2] (setting [4]).
With `CC(C)(C)OC(=O)N1CCC(c2nc(N3CCC34COC4)no2)CC1` [Compound 783], the IC50 in assay [1] (humanized yeast strain, 40 h) is greater than 45 µM; in assay [2] (humanized yeast strain, 40 h), greater than 45 µM.
As for `CC(C)c1noc2ccc(-c3noc(C4CCN(C(=O)C5CC5)CC4)n3)cc12` [Compound 941], the IC50 was greater than 45 µM in assay [1] (humanized yeast strain, 40 h) and 20.4 µM in assay [2] (humanized yeast strain, 40 h).
`Cc1nn(C)c2cc(-c3noc(C4CCN(Cc5ccccc5)C(=O)C4)n3)ccc12` (stereo not shown) [Compound 354]: in assay [1] (setting [5]), the IC50 is greater than 45 µM and the “SCD1 % Max Inhibition” value was found to be 30.16%. Further, in assay [2] (setting [6]), the 50% inhibitory concentration (IC50) is greater than 45 µM and the “SCD5 % Max Inhibition” value stood at 4.29%.
Take `CCC(=O)N1CCC(c2noc(-c3ccccc3N3CCOCC3)n2)CC1` [Compound 1168]: the IC50 in assay [1] (humanized yeast strain, 40 h) was greater than 45 µM; in assay [2] (humanized yeast strain, 40 h) it was greater than 45 µM.
For the compound `CC(C)(C)OC(=O)N1C[C@@H]2[C@H](C1)[C@H]2C(=O)NCc1ccc2[nH]ncc2c1` [Compound 794], the IC50 was greater than 45 µM in assay [1] (humanized yeast strain, 40 h) and greater than 45 µM in assay [2] (humanized yeast strain, 40 h).
With `CC(C)(C)OC(=O)N1CCC(c2nc(-c3cccc(OC4COC4)c3)no2)CC1` [Compound 672], the results for the IC50 in assay [1] (setting [3]) and in assay [2] (setting [4]) were greater than 45 µM and 0.441 µM, respectively.
`CC(C)(C)OC(=O)N1CCC(c2cc(-c3cc4c(cn3)cnn4C3COC3)no2)CC1` [Compound 1144]: the concentration for half-maximal inhibition (IC50) came out at 1.78 µM in assay [1] (humanized yeast strain, 40 h) and 0.01 µM in assay [2] (humanized yeast strain, 40 h).
For `CC(C)n1ncc2ccc(-c3ccc(C4CCN(C(=O)OC(C)(C)C)C4)nn3)cc21` (stereo not shown) [Compound 733], the IC50 in assay [1] (setting [3]) was greater than 45 µM; in assay [2] (setting [4]), 2.73 µM.
In the case of `COC(=O)N1CCC(c2noc(-c3ccc4cnn(C5CCCC5)c4c3)n2)CC1` [Compound 1042], the concentration for half-maximal inhibition (IC50) is greater than 45 µM in assay [1] (humanized yeast strain, 40 h) and 0.079 µM in assay [2] (humanized yeast strain, 40 h).
For `CC(C)(C)OC(=O)N1CCC(c2nc(-c3ccccc3)no2)CC1` [Compound 808] the same measures were greater than 45 µM and 5.82 µM.
Turning to `Cc1nn(C)c2cc(-c3noc(C4CCN(C(=O)CN)CC4(F)F)n3)ccc12` (stereo not shown) [Compound 665], the IC50 in assay [1] (setting [3]) is greater than 45 µM; in assay [2] (setting [4]) it was 5.01 µM.
Turning to `CC(C)n1ncc2ccc(-c3noc(C4CCCN(C(=O)OC(C)(C)C)C4)n3)cc21` (stereo not shown) [Compound 563], the IC50 in assay [1] (setting [5]) and in assay [2] (setting [6]) was greater than 45 µM throughout.
As for `CC(=O)N1CC(n2cc3ccc(-c4noc(C5CCN(C(=O)OC(C)(C)C)CC5)n4)cc3n2)C1` [Compound 711], the IC50 in assay [1] (setting [3]) and in assay [2] (setting [4]) was greater than 45 µM throughout.
In the case of `CC(C)n1ncc2ccc(-c3nc(N4CCN(C(=O)c5ncccc5F)CC4)no3)cc21` [Compound 845], the IC50 was greater than 45 µM in assay [1] (humanized yeast strain, 40 h) and 0.637 µM in assay [2] (humanized yeast strain, 40 h).
On the same counts, the results for `CC1(OC(=O)N2CCC(c3nnc(-c4ccc5cnn(C6CCOC6)c5c4)o3)CC2)CC1` (stereo not shown) [Compound 986] are greater than 45 µM and 0.048 µM.
As for `CC(C)(C)OC(=O)N1CCC(c2nc(-c3ccc4cnn(C5CNC5)c4c3)no2)CC1` [Compound 728], the IC50 in assay [1] (setting [3]) was greater than 45 µM; in assay [2] (setting [4]), 0.126 µM.
Take `COC(=O)N1CCC(c2noc(-c3cc(F)c4cnn(C5COC5)c4c3)n2)CC1` [Compound 875]: the IC50 in assay [1] (humanized yeast strain, 40 h) was greater than 45 µM; in assay [2] (humanized yeast strain, 40 h), 0.02 µM.
For `CC(C)(C)OC(=O)N1CCC(c2cnc(-c3ccc4cnn(C5COC5)c4c3)nc2)CC1` [Compound 985] the same measures were greater than 45 µM and 2.56 µM.
With `Cn1ccc(-c2cc(-c3nc(C4CCN(C(=O)OC5(C)CC5)CC4)no3)ccn2)n1` [Compound 1185], the IC50 is greater than 45 µM in assay [1] (humanized yeast strain, 40 h) and greater than 45 µM in assay [2] (humanized yeast strain, 40 h).
For `CC(C)n1ncc2ccc(-c3nc(C4CCN(C(=O)OC(C)(C)C)C4)no3)cc21` (stereo not shown) [Compound 524], the IC50 in assay [1] (setting [5]) is greater than 45 µM; in assay [2] (setting [6]) it was 2.5 µM.
Regarding `CC(C)(C)OC(=O)N1CCC(c2noc(-c3ccccc3N3CCOCC3)n2)CC1` [Compound 1145], the 50% inhibitory concentration (IC50) was greater than 45 µM in assay [1] (humanized yeast strain, 40 h) and 11.1 µM in assay [2] (humanized yeast strain, 40 h).
For `CC(C)n1ncc2ccc(-c3noc(N4CCN(C(=O)OC5(C)CC5)CC4)n3)cc21` [Compound 496], the concentration for half-maximal inhibition (IC50) was greater than 45 µM in assay [1] (setting [5]) and 0.445 µM in assay [2] (setting [6]).
For `CC(C)(C)OC(=O)N1CCC(c2nc(-c3ccc4cnn(C5CN(C(=O)OC(C)(C)C)C5)c4c3)no2)CC1` [Compound 652], the IC50 in assay [1] (setting [3]) and in assay [2] (setting [4]) was greater than 45 µM in each case.
`CC(C)C(=O)N1CCC(c2noc(-c3cccc(N4CCOCC4)c3F)n2)CC1` [Compound 1160]: the IC50 in assay [1] (humanized yeast strain, 40 h) is greater than 45 µM; in assay [2] (humanized yeast strain, 40 h), greater than 45 µM.
Regarding `O=C(OC1CC1)N1CCC(c2noc(-c3cnc4cnn(C5COC5)c4c3)n2)CC1` [Compound 1139], the 50% inhibitory concentration (IC50) in assay [1] (humanized yeast strain, 40 h) is greater than 45 µM; in assay [2] (humanized yeast strain, 40 h) it was 0.096 µM.
On the same counts, the results for `CC(C)(C)OC(=O)N1CCC(c2noc(-c3ccc(OC4COC4)c(NC4COC4)c3)n2)CC1` [Compound 1006] are greater than 45 µM and 0.637 µM.

(Values after patent US11873298B2, “Compounds and uses thereof” (JANSSEN PHARMACEUTICA NV, priority 2017, dated 2024).)
